In patent US11427548B2 (Arvinas Operations, Inc., priority 2015, dated 2022):
Where two headings read alike, the source gives them in different places.

Biological target: T1, Androgen Receptor (Homo sapiens, UniProt P10275)
T1 construct: endogenous in cells; host or cells: VCaP cells
T1 sequence (P10275 1-920): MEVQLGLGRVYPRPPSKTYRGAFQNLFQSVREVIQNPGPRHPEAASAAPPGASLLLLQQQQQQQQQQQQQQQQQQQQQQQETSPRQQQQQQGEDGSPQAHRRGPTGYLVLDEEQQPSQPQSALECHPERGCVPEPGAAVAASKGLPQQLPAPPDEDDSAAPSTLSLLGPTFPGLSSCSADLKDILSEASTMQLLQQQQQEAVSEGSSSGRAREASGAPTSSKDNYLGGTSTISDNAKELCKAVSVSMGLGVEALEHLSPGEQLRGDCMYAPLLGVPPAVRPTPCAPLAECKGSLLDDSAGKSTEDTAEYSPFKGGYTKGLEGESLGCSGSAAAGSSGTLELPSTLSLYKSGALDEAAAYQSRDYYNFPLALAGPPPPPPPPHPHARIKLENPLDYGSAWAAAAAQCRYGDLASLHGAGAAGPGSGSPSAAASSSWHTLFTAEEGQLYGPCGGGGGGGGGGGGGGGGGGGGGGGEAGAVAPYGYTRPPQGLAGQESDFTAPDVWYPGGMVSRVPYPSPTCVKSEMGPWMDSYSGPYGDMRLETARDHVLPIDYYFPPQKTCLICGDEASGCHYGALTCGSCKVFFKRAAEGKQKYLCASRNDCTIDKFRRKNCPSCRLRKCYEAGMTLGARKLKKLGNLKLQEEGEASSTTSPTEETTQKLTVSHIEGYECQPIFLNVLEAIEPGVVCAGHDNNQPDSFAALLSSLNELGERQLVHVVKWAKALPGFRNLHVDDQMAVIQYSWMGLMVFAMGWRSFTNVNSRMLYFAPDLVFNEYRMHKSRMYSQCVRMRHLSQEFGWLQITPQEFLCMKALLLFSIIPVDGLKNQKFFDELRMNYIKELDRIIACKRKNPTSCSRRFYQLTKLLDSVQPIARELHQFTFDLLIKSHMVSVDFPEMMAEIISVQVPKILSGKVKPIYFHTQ
Experiment: Androgen Receptor ELISA assay (PathScan AR ELISA) in VCaP cells: AR degradation, Dmax and DC50
Type: cell-based
Method in brief: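 VCaP cells in phenol red-free RPMI with 5% charcoal-stripped FBS were grown at least 3 days, then given compound as 7 half-log doses in 0.1% DMSO with 0.1 nM R1881 for 24 h. Lysates went into a sandwich AR ELISA with TMB read at 450 nm.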

[1] = VCaP cells; Table 36; read-out: VCaP DC50
[2] = read-out: VCaP DC50; concentration that caused 50% Androgen Receptor degradation, VCaP cells (Table 32)
[3] = read-out: VCaP DC50; concentration that caused 50% Androgen Receptor degradation, VCaP cells
[4] = VCaP, VCaP cells; Table 36; read-out: VCaP Dmax (%)
[5] = read-out: VCaP DC50; VCaP cells; Table 34

Structure (SMILES) | DC50 [1] | Dmax (VCaP, read-out: VCaP Dmax (%)) | further results
Cc1ncsc1-c1ccc([C@H](C)NC(=O)[C@@H]2C[C@@H](O)CN2C(=O)[C@@H](NC(=O)C(=O)N2CCN(CCOc3ccc(C(=O)N[C@H]4C(C)(C)[C@H](Oc5ccc(C#N)c(C(F)(F)F)c5)C4(C)C)cc3)CC2)C(C)(C)C)cc1 [Example 679, (2S,4R)-1-((S)-2-(2-(4-(2-(4-(((1r,3r)-3-(4-cyano-3-(trifluoromethyl)phenoxy)-2,2,4,4-tetramethylcyclobutyl)carbamoyl)phenoxy)eth-yl)piperazin-1-yl)-2-oxoacetamido)-3,3-dimethylbutanoyl)-4-hydroxy-N-((S)-1-(4-(4-methylthiazol-5-yl)phenyl)ethyl)pyrrolidine-2-carboxamide] | > 501 nM | – | –
Cc1ncsc1-c1ccc(CNC(=O)[C@@H]2C[C@@H](O)CN2C(=O)[C@@H](NC(=O)COc2cccc(Oc3ccc(-c4ccc(N5C(=S)N(c6ccc(C#N)c(C(F)(F)F)c6)C(=O)C5(C)C)cc4)cc3)c2)C(C)(C)C)cc1 [Example 114, (2S,4R)-1-[(2S)-2-(2-{3-[4-(4-{3-[4-cyano-3-(trifluoromethyl)phenyl]-5,5-dimethyl-4-oxo-2-sulfanylideneimidazolidin-1-yl}phenyl)phen-oxy]phenoxy}acetamido)-3,3-dimethylbutanoyl]-4-hydroxy-N-{[4-(4-methyl-1,3-thiazol-5-yl)phenyl]methyl}pyrrolidine-2-carboxamide] | – | 51 to 70% | DC50 [2]: < 50 nM
Cc1ncoc1-c1ccc(CNC(=O)[C@@H]2C[C@@H](O)CN2C(=O)[C@@H](NC(=O)COCCCOCCCCOc2ccc(N3C(=S)N(c4ccc(C#N)c(Cl)c4)C(=O)C3(C)C)cc2)C(C)(C)C)cc1 [Example 38, (2S,4R)-1-[(2S)-2-{2-[3-(4-{4-[3-(3-chloro-4-cyanophenyl)-5,5-dimethyl-4-oxo-2-sulfanylideneimidazolidin-1-yl]phenoxy}butoxy)propoxy]acetamido}-3,3-dimethylbutanoyl]-4-hydroxy-N-{[4-(4-methyl-1,3-oxazol-5-yl)phenyl]methyl}pyrrolidine-2-carboxamide] | – | 51 to 70% | DC50 [3]: < 50 nM
C[C@H](NC(=O)[C@@H]1C[C@@H](O)CN1C(=O)[C@@H](NC(=O)CN1CCN(CCCc2ccc(C(=O)N[C@H]3C(C)(C)[C@H](Oc4ccc(C#N)c(Cl)c4)C3(C)C)cc2)CC1)C(C)(C)C)c1ccc(Cl)cc1 [Example 739, (2S,4R)-1-((S)-2-(2-(4-(3-(4-(((1r,3r)-3-(3-chloro-4-cyanophenoxy)-2,2,4,4-tetramethylcyclobutyl)carbamoyl)phenyl)propyl)piperazin-1-yl)acetamido)-3,3-dimethylbutanoyl)-N-((S)-1-(4-chlorophenyl)ethyl)-4-hydroxypyrrolidine-2-carboxamide] | > 501 nM | – | Dmax [4]: < 25%
CC(C)(C)[C@H](NC(=O)COCCCOCCCCOc1ccc(N2C(=S)N(c3ccc(C#N)c(C(F)(F)F)c3)C(=O)C2(C)C)cc1)C(=O)N1C[C@H](O)C[C@H]1C(=O)NCc1ccc(-c2cn[nH]c2)cc1 [Example 376] | – | 51 to 70% | DC50 [5]: < 50 nM
CC(C)(C)[C@H](NC(=O)COCCCCCNc1ccc(C(=O)N[C@H]2C(C)(C)[C@H](Oc3ccc(C#N)c(Cl)c3)C2(C)C)cc1)C(=O)N1C[C@H](O)C[C@H]1C(=O)NCc1ccc(C2=CCNCC2)cc1 [Example 499] | – | – | DC50 (VCaP cells; Table 35; read-out: VCaP DC50): > 501 nM; Dmax (VCaP, VCaP cells; Table 35; read-out: VCaP Dmax (%)): 26 to 50%
Cc1ncsc1-c1ccc([C@H](C)NC(=O)[C@@H]2C[C@@H](O)CN2C(=O)[C@@H](NC(=O)CN2CCN(CCCc3ccc(C(=O)N[C@H]4C(C)(C)[C@H](Oc5ccc(C#N)c(Cl)c5)C4(C)C)cc3)[C@H](CO)C2)C(C)(C)C)cc1 [Example 824, (2S,4R)-1-((S)-2-(2-((S)-4-(3-(4-(((1r,3S)-3-(3-chloro-4-cyanophenoxy)-2,2,4,4-tetramethylcyclobutyl)carbamoyl)phenyl)propyl)-3-(hydroxymethyl)piperazin-1-yl)acetamido)-3,3-dimethylbutanoyl)-4-hydroxy-N-((S)-1-(4-(4-methylthiazol-5-yl)phenyl)ethyl) pyrrolidine-2-carboxamide] | < 50 nM | > 71% | –
Cc1ncsc1-c1ccc([C@H](C)NC(=O)[C@@H]2C[C@@H](O)CN2C(=O)[C@@H](C(C)C)n2cc(-c3ccnc(N4CC[C@H](Oc5ccc(N6C(=S)N(c7ccc(C#N)c(C(F)(F)F)c7)C(=O)C6(C)C)cc5)C4)c3)cn2)cc1 [Example 610, (2S,4R)-1-((R)-2-(4-(2-((S)-3-(4-(3-(4-cyano-3-(trifluoromethyl)phenyl)-5,5-dimethyl-4-oxo-2-thioxoimidazolidin-1-yl)phenoxy)pyrrolidin-1-yl)pyridin-4-yl)-1H-pyrazol-1-yl)-3-methylbutanoyl)-4-hydroxy-N-((S)-1-(4-(4-methylthiazol-5-yl)phenyl)ethyl)pyrroli-dine-2-carboxamide] | – | < 25% | DC50 (read-out: VCaP DC50; VCaP cells; Table 36): > 501 nM
Cc1ncsc1-c1ccc(CNC(=O)[C@@H]2C[C@@H](O)CN2C(=O)[C@@H](NC(=O)COCCCCOc2ccc(-c3ccc(N4C(=S)N(c5ccc(C#N)c(C(F)(F)F)c5)C(=O)C4(C)C)cc3)cc2)C(C)(C)C(=O)OC(C)(C)C)cc1 [Example 545] | – | 51 to 70% | DC50 (read-out: VCaP DC50; VCaP cells; Table 35): < 50 nM
Cc1ncsc1-c1ccc([C@H](C)NC(=O)[C@@H]2C[C@@H](O)CN2C(=O)[C@H](NC(=O)CN2CCN(CCCc3ccc(C(=O)N[C@H]4C(C)(C)[C@H](Oc5ccc(C#N)c(Cl)c5)C4(C)C)cc3)CC2)C2COC2)cc1 [Example 750, (2S,4R)-1-((R)-2-(4-(4-(3-(4-(((1r,3r)-3-(3-chloro-4-caynophenoxy)-2,2,4,4-tetramethylcyclobutyl)carbamoyl)phenyl)propyl)piperazin-1-yl)acetamido)-2-(oxetan-3-yl)acetyl)-4-hydroxy-N-((S)-1-(4-(4-methylthiazol-5-yl)phenyl)ethyl)pyrrolidine-2-carboxamide] | > 501 nM | – | Dmax [4]: < 25%
Cn1nccc1-c1ccc(CNC(=O)[C@@H]2C[C@@H](O)CN2C(=O)[C@@H](NC(=O)COCCCOCCCCOc2ccc(N3C(=S)N(c4ccc(C#N)c(Cl)c4)C(=O)C3(C)C)cc2F)C(C)(C)C)cc1 [Example 50, (2S,4R)-1-[(2S)-2-{2-[3-(4-{4-[3-(3-chloro-4-cyanophenyl)-5,5-dimethyl-4-oxo-2-sulfanylideneimidazolidin-1-yl]-2-fluorophenoxy}butoxy)propoxy]acetamido}-3,3-dimethylbutanoyl]-4-hydroxy-N-{[4-(1-methyl-1H-pyrazol-5-yl)phenyl]methyl}pyrrolidine-2-carboxamide] | – | > 71% | DC50 [3]: < 50 nM
Cc1ncsc1-c1ccc([C@H](C)NC(=O)[C@@H]2C[C@@H](O)CN2C(=O)[C@@H](NC(=O)CN2CCC(O[C@H]3C[C@H](Nc4ccc(C(=O)N[C@H]5C(C)(C)[C@H](Oc6ccc(C#N)c(Cl)c6)C5(C)C)cn4)C3)CC2)C(C)(C)C)cc1 [Example 690, N-((1r,3R)-3-(3-chloro-4-cyanophenoxy)-2,2,4,4-tetramethylcyclobutyl)-6-(((1S,3R)-3-((1-(2-(((S)-1-((2S,4R)-4-hydroxy-2-(((S)-1-(4-(4-methylthiazol-5-yl)phenyl)ethyl)carbam-oyl)pyrrolidin-1-yl)-3,3-dimethyl-1-oxobutan-2-yl)amino)-2-oxoethyl)piperidin-4-yl)oxy)cyclobutyl)amino) nicotinamide] | < 50 nM | > 71% | –
Cc1ncsc1-c1ccc(CNC(=O)[C@H]2C[C@@H](O)CN2C(=O)[C@@H](NC(=O)[C@@H](C)Oc2ccc(OCCOc3ccc(N4C(=S)N(c5ccc(C#N)c(C(F)(F)F)c5)C(=O)C4(C)C)cc3)cc2)C(C)(C)C)cc1 [Example 381] | – | 26 to 50% | DC50 [5]: < 50 nM
Cc1ncsc1-c1ccc(CNC(=O)[C@@H]2C[C@@H](O)CN2C(=O)[C@@H](NC(=O)COC(C)CCCOc2ccc(-c3ccc(N4C(=S)N(c5ccc(C#N)c(C(F)(F)F)c5)C(=O)C4(C)C)cc3)cc2)C(C)(C)C)cc1 (stereo in doubt) [Example 148, (2S,4R)-1-[(2S)-2-(2-{[(2R)-5-[4-(4-{3-[4-cyano-3-(trifluoromethyl)phenyl]-5,5-dimethyl-4-oxo-2-sulfanylideneimidazolidin-1-yl}phenyl)phenoxy]pentan-2-yl]oxy}acetamido)-3,3-dimethylbutanoyl]-4-hydroxy-N-{[4-(4-methyl-1,3-thiazol-5-yl)phenyl]methyl}pyrrolidine-2-carboxamide] | – | > 71% | DC50 [2]: < 50 nM
